This is an account of results in a melting point compilation (Tetko et al.; mined from patent text by program, amines drawn as free bases though some values may be those of a salt).

Consider `Oc1ccc(O)c(-c2ccc(Cl)cc2Cl)c1`, for which the melting point is 82 to 86 °C.

Regarding `Cn1c(=O)ccc2cnc(N)nc21`, the melting point lay within 237 to 253 °C.

Take `CSc1ccc(C(=O)CC(=O)C(F)F)cc1`: the melting point lay in the range of 68 to 70 °C.

Consider `CCCC(=O)c1c[nH]c2c(N3C(=O)c4ccccc4C3=O)cccc2c1=O`, for which the melting point lay in the range of 318 to 320 °C.

Molecule `CCN1CCC(n2nc(-c3c(-c4ccccc4)nn4ccccc34)ccc2=O)CC1` yielded a melting point of 134 to 135 °C.

As for `COc1ccc(-c2cc3ccccc3[nH]2)c(O)c1`, the melting point worked out at 195 °C.

The molecule `COc1ccc(-c2ccc3c(c2)NC(=O)CC(c2cccc(-n4ccnc4)c2)=N3)cc1` yielded a melting point of 207 to 208 °C.

As for `CC(C)C(=O)c1ccc2cc(O)c(O)cc2c1`, the melting point fell in the range of 154 to 156 °C.

`C#Cc1cnc2c(C)cc(OC(SC)C(=O)NC(C)(C#N)CF)cc2c1` (centres undefined) showed a melting point of 180 to 182 °C.

On to `COc1cc2nc(C(C)(C)C)sc2cc1NC(=S)SCCC(=O)O`, for which the melting point was 154 to 156 °C.

`O=C(O)CCc1sc(-c2ccccc2)nc1-c1ccc(Cl)cc1` showed a melting point of 142 to 143 °C.

In the case of `CCCCN(Cc1ccc(-c2ccccc2-c2nc(=O)o[nH]2)cc1)c1ncccc1C(=O)O`, the melting point lay within 95 to 98 °C.

Regarding `N#CCC(=O)c1ccccc1Cl`, the melting point lay in the range of 56 to 58 °C.

`O=C(O)[C@@H]1CN(C(=O)N(c2ccccc2)c2cccc(Cl)c2)CCN1C(=O)N(c1ccccc1)c1cccc(Cl)c1`: the melting point lay in the range of 200 to 203 °C.

In turn, `NC(C=Cc1ccccc1[N+](=O)[O-])=NO` displayed a melting point of 173 °C.

`CCOC1=N[C@@H](C(C)C)C(=O)N[C@]1(C)Cc1ccccc1` returned a melting point of 125 °C.

`C=CCc1cccc(-c2nc3n(C4CCCC4)[nH]c(CC)c-3c(=O)n2)c1O` displayed a melting point of more than 280 °C.

As to `C=Cc1cc(O)cc2nc(-c3ccc(O)c(F)c3F)oc12`, the melting point lay in the range of 276 to 278 °C.

`Cc1c[nH]c(Cc2ccc(O)cc2)n1` returned a melting point of 193 to 194 °C.

`CCC(=O)Nc1ccc2oc3c(c2c1)CCCC3` returned a melting point of 164 to 165 °C.

On to `CCC(=O)Nc1nc2c(s1)-c1nc(-c3ccccc3)ncc1CC2`, for which the melting point fell in the range of 274 to 275 °C.

Molecule `Fc1ccc(F)c(N=C2CCCc3cc4c(nc32)C(=Nc2c(F)cccc2F)CCC4)c1` registered a melting point of 145 to 150 °C.

In turn, `CC(C)(C)C1CCC(=O)C(CC(=O)c2ccccc2)C1` (centres undefined) showed a melting point of 127 to 129 °C.

As for `COc1ccc(Cn2c(=O)[nH]c3ccc(Cl)cc3c2=O)cc1`, the melting point fell in the range of 252 to 253 °C.

In turn, `O=C(O)CCOCC(I)=C(I)I` showed a melting point of 115 to 117 °C.

In the case of `CCCCCCCCCCCCCCCCN(CCCCCCCCCCCCCCCC)C(CCCCN)C(=O)O` (centres undefined), the melting point fell in the range of 124 to 125 °C.

For the molecule `CC(C)[C@H](NC(=O)N(C)Cc1cscn1)C(=O)N[C@@H](Cc1ccccc1)[C@@H](O)C[C@H](Cc1ccccc1)NC(=O)OCc1cccnc1`, the melting point was in the range of 71 to 74 °C.

`COC(=O)c1ccc(O)c(C=NO)c1` gave a melting point of 155 °C.

For `CCC(CC)Nc1nc(C)nc(Nc2c(C)cc(C)nc2C)c1[N+](=O)[O-]`, the melting point fell in the range of 151 to 152 °C.

Consider `O=Cc1cccc2c1CN(c1ccccc1)C2`, for which the melting point lay within 120 to 122 °C.

Molecule `N#Cc1nn(-c2c(Cl)cc(C(F)(F)F)cc2Cl)c(N)c1-c1cc(Br)no1` yielded a melting point of 227 °C.

With `COc1ccc(Cl)c(Oc2c(C)nc(N3CCOCC3)nc2O)c1`, the melting point came to 252 °C.

On to `Cn1cc(CC(=O)O)c(OCCCc2cn(-c3ccc(C(F)(F)F)cn3)nc2C2CCCCC2)n1`, for which the melting point was in the range of 157 to 158 °C.

`FC(F)(F)c1ccc(-c2ncc(C#Cc3cc4ccccc4s3)s2)cc1` registered a melting point of 178 to 180 °C.

`CSc1ccc(C(=S)N2CCCC2)cc1` registered a melting point of 116 to 118 °C.

Molecule `Cc1scnc1-c1ccc(-c2cc(C(F)(F)F)nn2-c2ccc(S(C)(=O)=O)c(F)c2)cc1` displayed a melting point of 170 to 172 °C.

`CCCCc1nc(O)cc(COC)n1` returned a melting point of 96 to 98 °C.

`Cc1ccc(-c2cc(C=O)ccn2)cc1` registered a melting point of 66 °C.

For the molecule `CCCCC(=O)N(Cc1ccc(-c2ccccc2-c2nc(=O)s[nH]2)cc1)c1sccc1C(=O)O`, the melting point was 148 to 149 °C.

As to `CC(=O)OC1CSC(Oc2cccc3ccoc23)C(OC(C)=O)C1OC(C)=O` (centres undefined), the melting point was 152 °C.

The molecule `Cc1cc2c(-c3ccccc3C)c(NC(=O)Nc3ccc(F)cc3F)c(=O)n(C)c2cc1Cl` registered a melting point of 227 to 229 °C.

For the molecule `CCOC(=O)CC(=O)c1cc(F)c(N2CCNCC2)nc1Nc1ccc(F)cc1F`, the melting point lay within 121 to 123 °C.

Take `O=C(O)c1cn(C2CC2)c2cc(N3CCC(c4ccccn4)C3)c(F)cc2c1=O` (centres undefined): the melting point was in the range of 216 to 219 °C.

The molecule `C#CCOc1nc(-c2ccc(OC)cc2)n(-c2ccc(OC)cc2)n1` yielded a melting point of 81 to 82 °C.

Consider `CN1C(=O)CCC2(C)c3ccc(S(=O)(=O)c4ccccc4)cc3CCC12` (single isomer, unassigned; (+)), for which the melting point fell in the range of 165 to 167 °C.

As to `CCOC(=O)c1cc(C#N)c(C=O)nc1N1CCCCC1`, the melting point fell in the range of 62 to 64 °C.

In the case of `CCCCCCCCC1(COc2ccc(N)cc2)CCc2c(C)c(OC(C)=O)c(C)c(C)c2O1` (centres undefined), the melting point was in the range of 112 to 114 °C.

As to `CCOC(=O)COc1ccc(-c2nc3ncccc3[nH]2)c(O)c1`, the melting point was found to be 198 °C.

For `COC(=O)c1cccc2c(Br)c(OC)ccc12`, the melting point came out at 119 °C.

For the molecule `CC(C)(C)CC(=O)NCc1cccs1`, the melting point fell in the range of 83 to 84 °C.

The molecule `COc1cccc(C23CCCC=C2C(=O)N(CCc2ccccc2)C(=O)C3)c1` (centres undefined) returned a melting point of 134 to 135 °C.

Consider `Cc1nnc(S(=O)c2c(C)cccc2C)o1` (centres undefined), for which the melting point fell in the range of 79 to 80 °C.

In turn, `O=C(Nc1ccc(Oc2ccccc2)cc1)N1CCN(c2ncnc3cc(OCc4ccccc4)c(OCc4ccccc4)cc23)CC1` yielded a melting point of 137 to 138 °C.

For the molecule `O=C1c2cc3cc(O)ccc3n2CC1CC1CCN(Cc2ccccc2)CC1` (centres undefined), the melting point lay within 186 to 188 °C.

With `CCOC(=O)c1c(-c2ccc(C)cc2)nc2ccccn12`, the melting point amounted to 88 °C.

As to `CCCc1nc2c(N)nc3cc(OCCCCCCNC(=O)OC(C)(C)C)ccc3c2s1`, the melting point fell in the range of 136 to 139 °C.

In turn, `O=C(O)CCCCCOC(=O)n1c(-c2cscn2)nc2ccccc21` came in with a melting point of 79 to 81 °C.

Molecule `COc1ccc2cnc(Nc3ccc(N4CCNCC4)c(F)c3)nc2c1C1CCCC1` displayed a melting point of 228 to 229 °C.

On to `CCCCOC(=O)CNC(=O)c1nc2ccc(Cl)cc2cc1OCc1ccccc1`, for which the melting point lay in the range of 121 to 123 °C.

In turn, `C[C@H](NC(=O)CC1CCC(=O)CC1)c1ccccc1` showed a melting point of 110 to 151 °C.

Take `CCOc1ccc2[nH]c(=O)n(C3Cc4ccccc4C3)c2c1`: the melting point amounted to 151 °C.

Regarding `Nc1cc(S(=O)(=O)C(F)(F)F)cc(Cl)c1N`, the melting point lay within 143 to 145 °C.

The molecule `N#Cc1cnc2cc(-c3ccc(CN4CCOCC4)o3)ccc2c1Nc1ccc(Cl)cc1Cl` registered a melting point of 118 to 120 °C.

The molecule `CN(C)c1cccc2c(S(=O)(=O)Nc3ccc(Cl)nc3)cccc12` registered a melting point of 145 to 146 °C.
